From patent US20240115571A1, “COMBINATION THERAPY FOR TREATING ABNORMAL CELL GROWTH” (priority 2021, published 2024)

System: EGFR mutant H1975 osimertinib-resistant (Dell9/T790M/C797S) NSCLC model
Experiment: H1975 osimertinib-resistant xenograft tumor mouse study
Format: in vivo, Balb/c nude mice
Conditions: VS-6766 0.3 mg/kg PO QD; osimertinib 2.5 mg/kg QD
Method: EGFR mutant H1975 NSCLC tumor cells were obtained from ATCC, EGFR mutant H1975 osimertinib-resistant NSCLC tumor cells were generated by Wuxi AppTec, and Balb/c nude mice were obtained from Beijing Vital River Laboratory Animal Technology. Tumor challenge was initiated by subcutaneous inoculation of 5×10^6 tumor cell suspensions into the right flank of recipient mice.
Tumor sizes (mm^3) and body weights were measured 2 times per week for the duration of the study. At the time of routine monitoring, the animals were checked for any effects of tumor growth and treatments on normal behavior such as mobility, food and water consumption (by looking only), and body weight gain/loss, eye/hair matting and any other abnormal effect.

CNS(=O)(=O)Nc1nccc(Cc2c(C)c3ccc(Oc4ncccn4)cc3oc2=O)c1F [VS-6766]
survival compared to osimertinib single agent: increased
tumor growth inhibition compared to osimertinib single agent: increased tumor growth inhibition
